This passage reports Activity results from ChEMBL document CHEMBL1147900, “Immuno-stimulating properties of diosgenyl saponins isolated from Paris polyphylla” (Bioorg Med Chem Lett, 2007).

Calls of active or inactive are those of the source. The rule behind the calls is not given here.

Holding throughout (type): functional, cell-based
Test [1] has as its system RAW. The test is described as follows: Effect on phagocytic activity in mouse RAW 264.7 cells after 24 hrs.
Test [2] relates to RAW. As to the kind of experiment: Induction of respiratory burst in mouse RAW 264.7 cells at 10 nM assessed as superoxide anion production after 2 hrs by NBT test.
The test system of test [3] is RAW. The test is described as follows: Effect on NO production in mouse RAW 264.7 cells at 100 nM.
Test [4] has as its system RAW. The test is described as follows: Effect on phagocytic activity in mouse RAW 264.7 cells at 10 uM after 24 hrs.

For the compound `C[C@@H]1CC[C@@]2(OC1)O[C@H]1C[C@H]3[C@@H]4CC=C5C[C@@H](O)CC[C@]5(C)[C@H]4CC[C@]3(C)[C@H]1[C@@H]2C`, the result in test [1] was Active. Also, the result in test [2] and in test [3] was inactive.
Regarding `C[C@H]1CC[C@@]2(OC1)O[C@H]1C[C@H]3[C@@H]4CC=C5C[C@@H](O[C@@H]6O[C@@H](CO)[C@H](O[C@H]7O[C@H](C)[C@@H](O[C@H]8O[C@H](C)[C@@H](O)[C@H](O)[C@@H]8O)[C@H](O)[C@@H]7O)[C@@H](O)[C@@H]6O[C@@H]6O[C@@H](C)[C@@H](O)[C@H](O)[C@@H]6O)CC[C@]5(C)[C@H]4CC[C@]3(C)[C@H]1[C@@H]2C`, the result in test [1], in test [4], in test [2] and in test [3] was Active.
